# What was measured:
# [1] = system: Hsp90 in HCT 116 cells; assay: Immunofluorescence staining of Hsp90 in treated colon cancer cells; assay type: cell-based; settings: 17-AAG 24 hours 200 nM, compound 3 and compound 4 72 hours 5 µM, polyclonal antibody to Hsp90
# [2] = target: Hsp90-TPR protein complexes; settings: C-terminal binder; ref [21]; cited from earlier work
# [3] = system: apoptosis; settings: ref [4]; cited from earlier work
molecule,measurement,setting,value
"C=CCNC1=C2C[C@@H](C)C[C@H](OC)[C@H](O)[C@@H](C)/C=C(\C)[C@H](OC(N)=O)[C@@H](OC)/C=C\C=C(/C)C(=O)NC(=CC1=O)C2=O [17-AAG, 17-(allylamino)-17-demethoxygeldanamycin]",Hsp90 staining in cytosol versus DMSO control,[1],intensify in brightness
CO[C@@H]1[C@@H](OC(N)=O)[C@@H](O)[C@H](Oc2ccc3c(O)c(NC(=O)c4ccc(O)c(CC=C(C)C)c4)c(=O)oc3c2C)OC1(C)C [novobiocin],"IC50, inhibition of binding between Hsp90 and four TPR-containing co-chaperones",[2],millimolar range
Sansalvamide A-amide [compound 1],induction of apoptosis,[3],induce apoptosis

# From PMC3337333 (Bioorganic & medicinal chemistry letters, 2012)
